Drawing on patent US20060100431A1, “Biologically active compounds” (Amura Therapeutics Limited, priority 2002, published 2006), this text covers Ki for 18 compounds.

Assay [1] concerns the target Wild-type cruzipain (Trypanosoma cruzi, UniProt P25779). Description: Trypanosoma cruzi cruzipain peptidase activity assay (Ki). It counts as biochemical. The conditions noted are these: read-out: Ki, inhibitors of cruzain and cruzipains. The method in brief: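 Native cruzipain from T. cruzi Dm28 epimastigotes, 2.5 nM, in 100 mM sodium phosphate pH 6.75 with 1 mM EDTA and 10 mM L-cysteine, 25 °C, DMSO <1%. Rates taken from continuous fluorogenic substrate read; Ki by regression assuming reversible pure-competitive inhibition.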

Assay [2] addresses T1, CPB2.8ΔCTE (Leishmania mexicana, UniProt P36400).
T1 construct: Wild-type recombinant CPB without the C-terminal extention (i.e. CPB2.8ΔCTE); Dr. Jeremy Mottram (Wellcome Centre for Molecular Parasitology, University of Glasgow)
Put plainly: Leishmania mexicana cysteine protease B (CPB) peptidase activity assay (Ki). It is filed as biochemical. The conditions noted are these: Ki, inhibitors of Leismania mexicana CPB protease. As for the experimental part: Unless otherwise stated, all general chemicals and biochemicals were purchased from either the Sigma Chemical Company, Poole, Dorset, U.K or from Fisher Scientific UK, Loughborough, Leicestershire, U.K. Absorbance assays were carried out in flat-bottomed 96-well plates (Spectra; Greiner Bio-One Ltd., Stonehouse, Gloucestershire, U.K.) using a SpectraMax PLUS384 plate reader (Molecular Devices, Crawley, U.K.). Fluorescence high throughput assays were carried out in either 384-well microtitre plates (Corning Costar 3705 plates, Fisher Scientific) or 96-well ‘U’ bottomed Microfluor W1 microtitre plates (Thermo Labsystems, Ashford, Middlesex, U.K.). Fluorescence assays were monitored using a SpectraMax Gemini fluorescence plate reader (Molecular Devices). For substrates employing either a 7-amino-4-methylcoumarin (AMC) or a 7-amino-4-trifluoromethylcoumarin (AFC) fluorophore, assays were monitored at an excitation wavelength of 365 nm and an emission wavelength of 450 nm and the fluorescence plate reader calibrated with AMC. For substrates employing a 3-amino-benzoyl (Abz) fluorophore, assays were monitored at an excitation wavelength of 310 nm and an emission wavelength of 445 nm; the fluorescence plate reader calibrated with 3-amino-benzamide (Fluka). Unless otherwise indicated, all the peptidase substrates were purchased from Bachem UK, St Helens, Merseyside, UK. Substrates utilizing fluorescence resonance energy transfer methodology (i.e. FRET-based substrates) were synthesized at Incenta Limited using published methods (Atherton & Sheppard, Solid Phase Peptide Synthesis, IRL Press, Oxford, U.K, 1989) and employed Abz (2-aminobenzoyl) as the fluorescence donor and 3-nitro-tyrosine [Tyr(NO2)] as the fluorescence quencher (Meldal, M. and Breddam, K., Anal. Biochem, 195, 141-147, 1991). Hydroxyethylpiperazine ethanesulfonate (HEPES), tris-hydroxylmethyl aminomethane (tris) base, bis-tris-propane and all the biological detergents (e.g. CHAPS, zwittergents, etc.) were purchased from CN Biosciences UK, Beeston, Nottinghamshire, U.K. Glycerol was purchased from Amersham Pharmacia Biotech, Little Chalfont, Buckinghamshire, U.K. Stock solutions of substrate or inhibitor were made up to 10 mM in 100% dimethylsulfoxide (DMSO) (Rathburns, Glasgow, U.K.) and diluted as appropriately required. In all cases the DMSO concentration in the assays was maintained at less than 1% (vol./vol.).
Assay protocols were based on literature precedent (Table 4; Barrett, A. J., Rawlings, N. D. and Woessner, J. F., 1998, Handbook of Proteolytic Enzymes, Academic Press, London and references therein) and modified as required to suit local assay protocols. Enzyme was added as required to initiate the reaction and the activity, as judged by the change in fluorescence upon conversion of substrate to product, was monitored over time. All assays were carried out at 25±1° C.
Wild-type recombinant CPB without the C-terminal extention (i.e. CPB2.8ΔCTE; Sanderson, S. J., et. al., Biochem. J., 347, 383-388, 2000) was obtained from Dr. Jeremy Mottram (Wellcome Centre for Molecular Parasitology, The Anderson College, University of Glasgow, Glasgow, U.K.). Activity assays were carried out in 100 mM sodium acetate; pH 5.5 containing 1 mM EDTA; 200 mM NaCl and 10 mM DTT (Alves, L. C., et. al., Mol. Biochem. Parasitol, 116, 1-9, 2001) using 0.25 nM enzyme. […] The rate of conversion of substrate to product was derived from the slope of the increase in fluorescence monitored continuously over time.
The apparent inhibition constant (Ki) for each compound was determined on the basis that inhibition was reversible and occurred by a pure-competitive mechanism. The Ki values were calculated, from the dependence of enzyme activity as a function of inhibitor concentration, by direct regression analysis (Prism v 3.02) using Equation 2 (Cornish-Bowden, A., 1995.). [formula]

Sequence of Wild-type cruzipain (P25779 whole entry): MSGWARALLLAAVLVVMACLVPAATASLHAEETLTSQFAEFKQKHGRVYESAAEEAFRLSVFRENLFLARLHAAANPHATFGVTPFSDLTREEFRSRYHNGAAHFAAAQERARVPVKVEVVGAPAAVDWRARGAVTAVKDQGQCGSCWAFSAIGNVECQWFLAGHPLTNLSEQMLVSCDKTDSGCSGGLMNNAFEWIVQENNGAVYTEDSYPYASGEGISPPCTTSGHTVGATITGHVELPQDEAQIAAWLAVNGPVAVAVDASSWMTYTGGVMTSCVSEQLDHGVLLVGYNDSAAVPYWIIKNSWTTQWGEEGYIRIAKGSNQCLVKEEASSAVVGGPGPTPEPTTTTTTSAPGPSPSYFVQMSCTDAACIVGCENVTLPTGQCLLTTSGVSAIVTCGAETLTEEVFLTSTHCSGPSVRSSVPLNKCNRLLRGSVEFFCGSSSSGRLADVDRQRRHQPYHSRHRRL
T1 sequence (P36400 126-343, stated change not applied): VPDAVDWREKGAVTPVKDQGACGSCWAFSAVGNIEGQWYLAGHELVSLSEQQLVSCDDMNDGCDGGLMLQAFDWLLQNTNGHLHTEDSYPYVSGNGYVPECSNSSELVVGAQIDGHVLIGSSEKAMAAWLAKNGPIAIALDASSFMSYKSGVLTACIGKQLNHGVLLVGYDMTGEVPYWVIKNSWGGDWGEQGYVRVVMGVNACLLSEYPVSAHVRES

Turning to `Cc1cc(C(=O)N2CC(=O)[C@@H]3[C@H]2CCN3C(=O)[C@H](CC(C)C)NC(=O)c2ccc(N(C)C)cc2)ccc1F` [Example 115, (3aR,6aS)-4-Dimethylamino-N-{(1S)-1-[4-(4-fluoro-3-methyl-benzoyl)-6-oxo-hexahydro-pyrrolo[3,2-b]pyrrole-1-carbonyl]-3-methyl-butyl}-benzamide], the Ki in assay [1] and in assay [2] was below 5 µM each time.
In the case of `CC(=O)N[C@@H](CC(C)C)C(=O)N1CC(=O)[C@@H]2[C@H]1CCN2C(=O)[C@H](Cc1ccc(O)cc1)NC(=O)c1cccc(Br)c1` [Example 345, (3aR,6aS)-N-[(1S)-2-[4-((2S)-2-Acetylamino-4-methyl-pentanoyl)-6-oxo-hexahydro-pyrrolo[3,2-b]pyrrol-1-yl]-1-(4-hydroxy-benzyl)-2-oxo-ethyl]-3-bromo-benzamide], the Ki in assay [1] and in assay [2] was below 5 µM in each case.
Take `CC(C)C[C@H](NC(=O)c1ccc(C(C)(C)C)cc1)C(=O)N1CC[C@@H]2[C@H]1C(=O)CN2C(=O)[C@@H](N)CC(C)C` [Example 192, (3aR,6aS)-N-{(1S)-1-[4-((2S)-2-Amino-4-methyl-pentanoyl)-6-oxo-hexahydro-pyrrolo[3,2-b]pyrrole-1-carbonyl]-3-methyl-butyl}-4-tert-butyl-benzamide]: the Ki in assay [1] and in assay [2] was below 5 µM throughout.
Take `NCc1ccc(C(=O)N[C@@H](Cc2ccc(O)cc2)C(=O)N2CC[C@@H]3[C@H]2C(=O)CN3C(=O)c2ccccc2)cc1` [Example 318]: the Ki in assay [1] and in assay [2] was below 5 µM throughout.
Take `COC1CCCC(C(=O)N2CC(=O)[C@@H]3[C@H]2CCN3C(=O)[C@H](CC(C)C)NC(=O)c2ccc(N(C)C)cc2)C1` (stereo partly drawn) [Example 139, (3aR,6aS)-4-Dimethylamino-N-{(1S)-1-[4-(3-methoxy-cyclohexanecarbonyl)-6-oxo-hexahydro-pyrrolo[3,2-b]pyrrole-1-carbonyl]-3-methyl-butyl}-benzamide]: the Ki in assay [1] and in assay [2] was below 5 µM in each case.
With `CC(C)C[C@H](NC(=O)c1ccc(N(C)C)cc1)C(=O)N1CC[C@@H]2[C@H]1C(=O)CN2C(=O)C1CC=CCC1` (stereo partly drawn) [Example 138, (3aR,6aS)-N-{(1S)-1-[4-(Cyclohex-3-enecarbonyl)-6-oxo-hexahydro-pyrrolo[3,2-b]pyrrole-1-carbonyl]-3-methyl-butyl}-4-dimethylamino-benzamide], the Ki in assay [1] and in assay [2] was below 5 µM throughout.
Turning to `CS(=O)(=O)c1ccccc1C(=O)N1CC(=O)[C@@H]2[C@H]1CCN2C(=O)[C@H](Cc1ccc(O)cc1)NC(=O)c1cccc(CN)c1` [Example 332, (3aR,6aS)-3-Aminomethyl-N-{(1S)-1-(4-hydroxy-benzyl)-2-[4-(2-methanesulfonyl-benzoyl)-6-oxo-hexahydro-pyrrolo[3,2-b]pyrrole-1-yl]-2-oxo-ethyl}-benzamide], the Ki in assay [1] and in assay [2] was below 5 µM each time.
For the compound `CC(C)C[C@H](NC(=O)c1cccc(CN)c1)C(=O)N1CC[C@@H]2[C@H]1C(=O)CN2C(=O)[C@@H](C)c1ccccc1` [Example 177, (3aR,6aS)-3-Aminomethyl-N-{(1S)-3-methyl-1-[6-oxo-4-((2S)-2-phenyl-propionyl)-hexahydro-pyrrolo[3,2-b]pyrrole-1-carbonyl]-butyl}-benzamide], the Ki (usually the equilibrium dissociation constant of an inhibitor or competing ligand from its target) in assay [2] was below 5 µM.
Still for that read-out and setting: next, `CC(C)C[C@H](NC(=O)c1ccc(-c2cccs2)cc1)C(=O)N1CC[C@@H]2[C@H]1C(=O)CN2S(=O)(=O)c1ccccc1` [Example 120, (3aR,6aS)-N-[(1S)-1-(4-Benzenesulfonyl-6-oxo-hexahydropyrrolo [3,2-b]pyrrole-1-carbonyl)-3-methyl-butyl]-4-thiophen-2-yl-benzamide]: below 5 µM; `CC(C)C[C@H](NC(=O)c1ccc(N(C)C)cc1)C(=O)N1CC[C@@H]2[C@H]1C(=O)CN2C(=O)[C@@H](N)CC1CCCCC1` [Example 215, (3aR,6aS)-N-{(1S)-1-[4-((2S)-2-Amino-3-cyclohexyl-propionyl)-6-oxo-hexahydro-pyrrolo[3,2-b]pyrrole-1-carbonyl]-3-methyl-butyl}-4-dimethylamino-benzamide]: below 5 µM.
The same measure, in the same setting: under `COC(=O)c1ccc(C(=O)N2CC(=O)[C@@H]3[C@H]2CCN3C(=O)[C@H](CC(C)C)NC(=O)c2ccc(N(C)C)cc2)cc1` [Example 76, (3aS,6aR)-4-{4-[(2S)-2-(4-Dimethylamino-benzoylamino)-4-methyl-pentanoyl]-3-oxo-hexahydro-pyrrolo[3,2-b]pyrrole-1-carbonyl}-benzoic acid methyl ester] stands below 5 µM; under `CC(C)C[C@H](NC(=O)c1ccc(C(C)(C)C)cc1)C(=O)N1CC[C@@H]2[C@H]1C(=O)CN2C(=O)Cc1ccccc1` [Example 3, (3aR,6aS)-4-tert-Butyl-N-[(1S)-3-methyl-1-(6-oxo-4-phenylacetyl-hexahydro-pyrrolo[3,2-b]pyrrole-1-carbonyl)-butyl]-benzamide], below 5 µM.
Same read-out and setting: next, `CC(C)C[C@H](NC(=O)c1ccc(N(C)C)cc1)C(=O)N1CC[C@@H]2[C@H]1C(=O)CN2C(=O)[C@H](CC(N)=O)NC(=O)OCc1ccccc1` [Example 148, (3aS,6aR)-((1S)-1-Carbamoylmethyl-2-{4-[(2S)-2-(4-dimethylaminobenzoylamino)-4-methyl-pentanoyl]-3-oxo-hexahydro-pyrrolo[3,2-b]pyrrol-1-yl}-2-oxo-ethyl)-carbamic acid benzyl ester]: below 5 µM; `CCCCCC(=O)N1CC(=O)[C@@H]2[C@H]1CCN2C(=O)[C@H](CC(C)C)NC(=O)c1ccc(N(C)C)cc1` [Example 234, (3aR,6aS)-4-Dimethylamino-N-[(1S)-1-(4-hexanoyl-6-oxo-hexahydro-pyrrolo[3,2-b]pyrrole-1-carbonyl)-3-methyl-butyl]-benzamide]: below 5 µM.
`CC(C)C[C@H](NC(=O)c1cccc(CN)c1)C(=O)N1CC[C@@H]2[C@H]1C(=O)CN2C(=O)[C@H](C)c1ccccc1` [Example 176, (3aR,6aS)-3-Aminomethyl-N-{(1S)-3-methyl-1-[6-oxo-4-((2R)-2-phenyl-propionyl)-hexahydro-pyrrolo[3,2-b]pyrrole-1-carbonyl]-butyl}-benzamide] gave a Ki in assay [2] below 5 µM.
`CCCC(C)C(=O)N1CC(=O)[C@@H]2[C@H]1CCN2C(=O)[C@H](CC(C)C)NC(=O)c1ccc(N(C)C)cc1` (stereo partly drawn) [Example 230, (3aR,6aS)-4-Dimethylamino-N-{(1S)-3-methyl-1-[4-(2-methyl-pentanoyl)-6-oxo-hexahydro-pyrrolo[3,2-b]pyrrole-1-carbonyl]-butyl}-benzamide] came in with a Ki in assay [2] below 5 µM.
`CC(C)CC[C@H](N)C(=O)N1CC(=O)[C@@H]2[C@H]1CCN2C(=O)[C@H](CC(C)C)NC(=O)c1ccc(N(C)C)cc1` [Example 213, (3aR,6aS)-N-{(1S)-1-[4-((2S)-2-Amino-5-methyl-hexanoyl)-6-oxo-hexahydro-pyrrolo[3,2-b]pyrrole-1-carbonyl]-3-methyl-butyl}-4-dimethylamino-benzamide] registered a Ki in assay [2] below 5 µM.
Same read-out and setting: next, `Cc1ccc(C[C@H](NC(=O)c2ccc(C(C)(C)C)cc2)C(=O)N2CC[C@@H]3[C@H]2C(=O)CN3C(=O)Cc2ccccc2)cc1` [Example 360, (3aR,6aS)-4-tert-Butyl-N-[(1S)-1-(4-methyl-benzyl)-2-oxo-2-(6-oxo-4-phenylacetyl-hexahydro-pyrrolo[3,2-b]pyrrole-1-yl)-ethyl]-benzamide]: below 5 µM.
